# Assay results: US9346809B2 (LEO PHARMA A/S, priority 2009, dated 2016)
# Where two headings read alike, the source gives them in different places.
# Legend:
# Format in all cases: biochemical
# [1] = biological target: T1, JAK2 (catalytic domain, His-tag) (Homo sapiens, UniProt O60674); experiment: JAK kinase assay (HTRF, phosphorylation of TK substrate-biotin), JAK2; conditions: ATP at Km (4 μM)
# T1 construct: All four purified enzymes contain only the catalytic domain; His (N); purchased Carna Biosciences, Inc; host or cells: baculovirus expression system
# T1 sequence (O60674 849-1124 limits assumed): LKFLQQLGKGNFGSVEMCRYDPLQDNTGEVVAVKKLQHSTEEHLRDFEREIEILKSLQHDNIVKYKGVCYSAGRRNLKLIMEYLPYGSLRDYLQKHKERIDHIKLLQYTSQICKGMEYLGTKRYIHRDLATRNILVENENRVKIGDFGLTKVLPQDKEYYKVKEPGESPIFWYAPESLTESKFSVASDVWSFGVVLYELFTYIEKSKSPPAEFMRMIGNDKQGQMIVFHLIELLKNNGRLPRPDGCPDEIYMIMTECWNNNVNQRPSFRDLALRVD
# Outline: (§1)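 Baculovirus-expressed catalytic domains phosphorylated 1 μM TK substrate-biotin in 50 mM Hepes pH 7.0 with ATP at Km (JAK1 7 μM, JAK2 4 μM, JAK3 2 μM, TYK2 13 μM) for 20-30 min at RT. EDTA/KF stop, streptavidin-XL665 plus cryptate antibody overnight; HTRF signal gave EC50.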
# [2] = biological target: T2, JAK1 (aa 850-1154, catalytic domain, GST-tag) (Homo sapiens, UniProt P23458); experiment: JAK kinase assay (HTRF, phosphorylation of TK substrate-biotin), JAK1; conditions: ATP at Km (7 μM)
# T2 construct: JAK1 (aa 850-1154) and TYK2 (aa 871-1187) are expressed with an N-terminally fused GST-tag; GST (N); purchased Carna Biosciences, Inc; host or cells: baculovirus expression system
# T2 sequence (P23458 850-1154): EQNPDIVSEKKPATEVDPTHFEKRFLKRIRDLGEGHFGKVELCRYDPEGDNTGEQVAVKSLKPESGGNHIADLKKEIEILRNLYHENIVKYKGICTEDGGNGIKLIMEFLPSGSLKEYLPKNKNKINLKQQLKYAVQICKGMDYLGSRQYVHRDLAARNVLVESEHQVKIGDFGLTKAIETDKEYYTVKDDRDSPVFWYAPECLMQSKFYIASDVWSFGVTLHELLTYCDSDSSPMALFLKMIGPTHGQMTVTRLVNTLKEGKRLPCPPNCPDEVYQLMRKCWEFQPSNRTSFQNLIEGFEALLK
# Outline: as §1
# [3] = biological target: T3, TYK2 (aa 871-1187, catalytic domain, GST-tag) (Homo sapiens, UniProt P29597); experiment: JAK kinase assay (HTRF, phosphorylation of TK substrate-biotin), TYK2; conditions: ATP at Km (13 μM)
# T3 construct: JAK1 (aa 850-1154) and TYK2 (aa 871-1187) are expressed with an N-terminally fused GST-tag; GST (N); purchased Carna Biosciences, Inc; host or cells: baculovirus expression system
# T3 sequence (P29597 871-1187): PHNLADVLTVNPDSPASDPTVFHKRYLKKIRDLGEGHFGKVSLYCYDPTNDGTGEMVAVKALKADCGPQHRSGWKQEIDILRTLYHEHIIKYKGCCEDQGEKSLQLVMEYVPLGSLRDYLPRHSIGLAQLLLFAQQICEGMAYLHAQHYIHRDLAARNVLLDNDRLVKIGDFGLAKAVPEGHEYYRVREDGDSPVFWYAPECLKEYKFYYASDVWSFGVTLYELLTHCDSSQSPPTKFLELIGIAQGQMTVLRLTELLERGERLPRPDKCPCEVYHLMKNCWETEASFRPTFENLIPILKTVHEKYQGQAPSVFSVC
# Outline: as §1
# [4] = biological target: T4, JAK3 (catalytic domain, His-tag) (Homo sapiens, UniProt P52333); experiment: JAK kinase assay (HTRF, phosphorylation of TK substrate-biotin), JAK3; conditions: ATP at Km (2 μM)
# T4 construct: All four purified enzymes contain only the catalytic domain; His (N); purchased Carna Biosciences, Inc; host or cells: baculovirus expression system
# T4 sequence (P52333 822-1111 limits assumed): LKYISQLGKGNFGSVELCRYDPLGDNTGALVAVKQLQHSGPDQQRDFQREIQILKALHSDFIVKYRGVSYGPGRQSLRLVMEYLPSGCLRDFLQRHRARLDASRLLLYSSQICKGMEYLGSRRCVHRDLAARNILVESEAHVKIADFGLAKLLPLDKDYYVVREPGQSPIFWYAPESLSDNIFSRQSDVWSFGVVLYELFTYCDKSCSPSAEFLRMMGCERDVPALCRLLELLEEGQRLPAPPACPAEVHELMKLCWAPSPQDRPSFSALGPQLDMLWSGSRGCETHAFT
# Outline: as §1
# [5] = HTRF assay, read-out: JAK2 kinase inhibitory activity (EC50 indicator)
# [6] = HTRF assay, read-out: JAK1 kinase inhibitory activity (EC50 indicator)
# [7] = HTRF assay, read-out: TYK2 kinase inhibitory activity (EC50 indicator)
# [8] = HTRF assay, read-out: JAK3 kinase inhibitory activity (EC50 indicator)
# [9] = read-out: JAK2 kinase inhibitory activity (EC50 indicator)
# [10] = read-out: JAK1 kinase inhibitory activity (EC50 indicator)
# [11] = read-out: TYK2 kinase inhibitory activity (EC50 indicator)
# [12] = read-out: JAK3 kinase inhibitory activity (EC50 indicator)
Structure (SMILES),"EC50 [1, 5] [nM]","EC50 [2, 6] [nM]","EC50 [3, 7] [nM]","EC50 [4, 8] [nM]","EC50 [1, 9] [nM]","EC50 [2, 10] [nM]","EC50 [3, 11] [nM]","EC50 [4, 12] [nM]",also measured
"COc1cc(OC)cc(C(=O)N2CCN(c3ncnc4[nH]ccc34)CC23CC3)c1 [Example 213, (3,5-Dimethoxy-phenyl)-[7-(7H-pyrrolo[2,3-d]pyrimidin-4-yl)-4,7-diaza-spiro[2.5]oct-4-yl]-methanone]",< 100,< 100,100 to 500,100 to 500,–,–,–,–,–
"O=C(C1CCCO1)N1CCN(c2ncnc3[nH]ccc23)CC12CC2 (stereo not shown) [Example 22, [7-(7H-Pyrrolo[2,3-d]pyrimidin-4-yl)-4,7-diazaspiro[2.5]oct-4-yl]-(tetrahydrofuran-2-yl)methanone]",–,–,–,–,< 100,100 to 500,> 500,100 to 500,–
"NS(=O)(=O)c1ccc(-c2ccc(C(=O)N3CCN(c4ncnc5[nH]ccc45)CC34CC4)o2)cc1 [Example 400, 4-{5-[7-(7H-Pyrrolo[2,3-d]pyrimidin-4-yl)-4,7-diaza-spiro[2.5]octane-4-carbonyl]-furan-2-yl}-benzenesulfonamide]",< 100,< 100,100 to 500,100 to 500,–,–,–,–,–
"CCCS(=O)(=O)Nc1ccc(C(=O)N2CCN(c3ncnc4[nH]ccc34)CC23CC3)cc1 [Example 431, Propane-1-sulfonic acid {4-[7-(7H-pyrrolo[2,3-d]pyrimidin-4-yl)-4,7-diaza-spiro[2.5]octane-4-carbonyl]-phenyl}-amide]",< 100,< 100,100 to 500,100 to 500,–,–,–,–,–
"CN(CCC#N)S(=O)(=O)N1CCN(c2ncnc3[nH]ccc23)CC12CC2 [Example 458, 7-(7H-Pyrrolo[2,3-d]pyrimidin-4-yl)-4,7-diaza-spiro[2.5]octane-4-sulfonic acid (2-cyano-ethyl)-methyl-amide]",–,–,–,–,–,–,–,–,"EC50 ([1]; HTRF assay, read-out: JAK2 kinase inhibitory activity (EC50)): < 100 nM; EC50 ([2]; HTRF assay, read-out: JAK1 kinase inhibitory activity (EC50)): < 100 nM; EC50 ([3]; HTRF assay, read-out: TYK2 kinase inhibitory activity (EC50)): < 100 nM; EC50 ([4]; HTRF assay, read-out: JAK3 kinase inhibitory activity (EC50)): < 100 nM"
"Cc1ccc2[nH]c(C(=O)N3C4CCC3CN(c3ncnc5[nH]ccc35)C4)cc2c1 [Example 200, (5-Methyl-1H-indol-2-yl)-[3-(7H-pyrrolo[2,3-d]pyrimidin-4-yl)-3,8-diaza-bicyclo[3.2.1]oct-8-yl]-methanone]",–,–,–,–,< 100,< 100,> 500,100 to 500,–
"Cc1c(C(=O)N2C3CCC2CN(c2ncnc4[nH]ccc24)C3)[nH]c2ccc(F)cc12 [Example 201, (5-Fluoro-3-methyl-1H-indol-2-yl)-[3-(7H-pyrrolo[2,3-d]pyrimidin-4-yl)-3,8-diaza-bicyclo[3.2.1]oct-8-yl]-methanone]",–,–,–,–,100 to 500,< 100,> 500,100 to 500,–
"COCCNS(=O)(=O)c1ccc(C(=O)N2CCN(c3ncnc4[nH]ccc34)CC23CC3)cc1 [Example 396, N-(2-Methoxy-ethyl)-4-[7-(7H-pyrrolo[2,3-d]pyrimidin-4-yl)-4,7-diaza-spiro[2.5]octane-4-carbonyl]-benzenesulfonamide]",< 100,< 100,100 to 500,< 100,–,–,–,–,–
"N#Cc1ccc(C(=O)N2C[C@@H]3C[C@H]2CN3c2ncnc3[nH]ccc23)cc1 [Example 258, 4-[5-(7H-Pyrrolo[2,3-d]pyrimidin-4-yl)-2,5-diaza-bicyclo[2.2.1]heptane-2-carbonyl]-benzonitrile]",> 500,> 500,> 500,> 500,–,–,–,–,–
"N#CCc1ccc(C(=O)N2CCN(c3ncnc4[nH]ccc34)CC23CC3)cc1 [Example 18, {4-[7-(7H-Pyrrolo[2,3-d]pyrimidin-4-yl)-4,7-diazaspiro[2.5]octane-4-carbonyl]-phenyl}acetonitrile]",–,–,–,–,< 100,< 100,100 to 500,100 to 500,–
"O=C(c1cnc2ccccc2n1)N1CCN(c2ncnc3[nH]ccc23)CC12CC2 [Example 161, [7-(7H-Pyrrolo[2,3-d]pyrimidin-4-yl)-4,7-diaza-spiro[2.5]oct-4-yl]-quinoxalin-2-yl-methanone]",–,–,–,–,< 100,< 100,< 100,< 100,–
"CNS(=O)(=O)c1csc(C(=O)N2CCN(c3ncnc4[nH]ccc34)CC23CC3)c1C [Example 376, 4-Methyl-5-[7-(7H-pyrrolo[2,3-d]pyrimidin-4-yl)-4,7-diaza-spiro[2.5]octane-4-carbonyl]-thiophene-3-sulfonic acid methylamide]",< 100,< 100,100 to 500,< 100,–,–,–,–,–
"N#Cc1ccccc1CC(=O)N1[C@@H]2CC[C@@H]1CN(c1ncnc3[nH]ccc13)C2 [Example 250, 2-{2-Oxo-2-[3-(7H-pyrrolo[2,3-d]pyrimidin-4-yl)-3,8-diaza-bicyclo[3.2.1]oct-8-yl]-ethyl}-benzonitrile]",100 to 500,100 to 500,> 500,100 to 500,–,–,–,–,–
"CC(C)S(=O)(=O)c1ccc(C(=O)N2C3CCC2CN(c2ncnc4[nH]ccc24)C3)cc1 [Example 202, [4-(Propane-2-sulfonyl)-phenyl]-[3-(7H-pyrrolo[2,3-d]pyrimidin-4-yl)-3,8-diaza-bicyclo[3.2.1]oct-8-yl]-methanone]",–,–,–,–,100 to 500,100 to 500,> 500,> 500,–
"Cc1ccc(CNS(=O)(=O)c2ccc(C(=O)N3CCN(c4ncnc5[nH]ccc45)CC34CC4)cc2)o1 [Example 427, N-(5-Methyl-furan-2-ylmethyl)-4-[7-(7H-pyrrolo[2,3-d]pyrimidin-4-yl)-4,7-diaza-spiro[2.5]octane-4-carbonyl]-benzenesulfonamide]",< 100,< 100,< 100,< 100,–,–,–,–,–
"O=C(c1ccc2[nH]cnc2c1)N1CCN(c2ncnc3[nH]ccc23)CC12CC2 [Example 162, (1H-Benzoimidazol-5-yl)-[7-(7H-pyrrolo[2,3-d]pyrimidin-4-yl)-4,7-diaza-spiro[2.5]oct-4-yl]-methanone]",–,–,–,–,< 100,< 100,> 500,100 to 500,–
"O=C(c1ccncc1)N1[C@@H]2CC[C@@H]1CN(c1ncnc3[nH]ccc13)C2 [Example 242, Pyridin-4-yl-[3-(7H-pyrrolo[2,3-d]pyrimidin-4-yl)-3,8-diaza-bicyclo[3.2.1]oct-8-yl]-methanone]",< 100,< 100,> 500,100 to 500,–,–,–,–,–
"COC(=O)c1cc2c(N3CCN(C(=O)C4(C#N)CC4)C4(CC4)C3)ncnc2[nH]1 [Example 336, 4-[4-(1-Cyano-cyclopropanecarbonyl)-4,7-diaza-spiro[2.5]oct-7-yl]-7H-pyrrolo[2,3-d]pyrimidine-6-carboxylic acid methyl ester]",> 500,> 500,> 500,> 500,–,–,–,–,–
"CCCS(=O)(=O)N1[C@@H]2CC[C@H]1CN(c1ncnc3[nH]ccc13)C2 [Example 51, 4-[8-(Propane-1-sulfonyl)-3,8-diaza-bicyclo[3.2.1]oct-3-yl]-7H-pyrrolo[2,3-d]pyrimidine]",–,–,–,–,100 to 500,100 to 500,> 500,> 500,–
"O=C(c1ccccn1)N1CCN(c2ncnc3[nH]ccc23)CC12CC2 [Example 2, Pyridin-2-yl-[7-(7H-pyrrolo[2,3-d]pyrimidin-4-yl)-4,7-diazaspiro[2.5]oct-4-yl]methanone]",–,–,–,–,< 100,< 100,100 to 500,100 to 500,–
"O=C(c1ccccn1)N1CCN(c2ccnc3[nH]ccc23)CC12CC2 [Example 222, Pyridin-2-yl-[7-(1H-pyrrolo[2,3-b]pyridin-4-yl)-4,7-diaza-spiro[2.5]oct-4-yl]-methanone]",100 to 500,100 to 500,> 500,> 500,–,–,–,–,–
"N#CC1(C(=O)N2CCN(c3ncnc4[nH]ccc34)CC23CC3)CCCC1 [Example 114, 1-[7-(7H-Pyrrolo[2,3-d]pyrimidin-4-yl)-4,7-diaza-spiro[2.5]octane-4-carbonyl]-cyclopentanecarbonitrile]",–,–,–,–,< 100,100 to 500,> 500,100 to 500,–
